Data on 6 substances can be found in article PMC6271530, “Design and Optimisation of Bioactive Cyclic Peptides: Generation of a Down-Regulator of TNF Secretion” (Molecules, 2014).

Series [1] relates to CTB-stimulated J774A.1 cells. The format is cell-based, murine.
The subject of series [2] is LPS-stimulated J774A.1 cells. The series is described as follows: TNF secretion by LPS-stimulated J774A.1 cells. Format: cell-based, murine. The conditions noted are these: for Change in level of secretion of TNF into the supernatant: LPS-stimulated J774A.1 cells, overnight exposure to cyclic peptide, TNF by sandwich ELISA, very high levels of TNF generated. For orientation: ELISA stands for enzyme-linked immunosorbent assay.

For series [3], the system named is cytokine activated T-cells (Tck) co-cultured with monocytes. The series is described as follows: TNF secretion in T cell/monocyte co-culture (cognate assay). Format: cell-based, human. As to the method:
(§1) A methodology described by Brennan et al. was employed. Peripheral blood lymphocytes (>95%) are enriched by Centrifugal Elutriation from plateletphoresis blood cones. CD45RO^+ Tcells (>98% purity) isolated by negative selection (Miltenyi, Bisley, UK) are re-suspended to a density of 1 × 10^6 cells/mL in RPMI 1640 containing 10% heat-inactivated AB^+ Human Serum. Cytokines are added to the cells at the following concentrations, hIL-2 @25 ng/mL, hIL-6 @100 ng/mL and hTNFα @25 ng/mL, all purchased from Peprotech UK (London, UK). The cells are incubated at 37 °C, 5% CO2 for 8 d after which they are pelleted twice at 1500 rpm for 5 min, counted and then used in a cognate experiment.
(§2) A methodology described by Brennan et al. is employed as follows. Elutriation-enriched (>95%) autologous monocytes are cultured at 1 × 10^6 cells/mL (100 microlitres) in RPMI 1640 containing 5% heat-inactivated FCS, in a 96-well, round-bottomed culture plate. After adjusting the cell number, cytokine activated T-cells (Tck) are added to the monocytes at a 5:1 ratio, the peptides are then added into the appropriate wells, with a final volume of 200 μL/well. Cells are co-cultured at 37 °C, 5% CO2 for 18 h after which the supernatants are removed and assayed for cytokine production by ELISA.

For series [4], the system named is LPS-stimulated J774A.1 cells. As to the kind of experiment: IL-6 secretion by LPS-stimulated J774A.1 cells. Format: cell-based, murine. The following applies: different concentrations, formulated with cyclodextrin in the absence of transcutol.
Series [5] deals with cytokine activated T-cells (Tck) co-cultured with monocytes. As to the kind of experiment: IL-6 secretion in the cognate assay. The format is cell-based, human. The conditions noted are these: cognate model; 10 and 1 μg/mL peptide, relative to corresponding vehicle controls; formulated with cyclodextrin in the absence of transcutol. How it is done: as §1, §2
Series [6] concerns cells of the cytokine secretion experiments (replicates of each group). The series is described as follows: MTT viability assay. Format: cell-based. The following applies: MTT 4 h at 37 °C, read at 620 nm. How it is done: After removal of the supernatants 100 μL of RPMI 1640 is added to each well of the plate. 10 μL of MTT dye (stock 5 mg/mL) is added to each well and incubated for 4 h at 37 °C 5% CO2, the MTT crystals are dissolved with SDS after which the plates are read at 620 nm.

Series [7] concerns cytokine activated T-cells (Tck) co-cultured with monocytes. As to the kind of experiment: IL-1 levels in the cognate model. Format: cell-based, human. As to the method: as §1, §2
The test system is the same in series [8]. The series is described as follows: IL-10 levels in the cognate model. The format is cell-based, human. How it is done: as §1, §2
Series [9] in a line: Light scattering / homogeneity of the peptide preparation in aqueous medium. The conditions noted are these: peptide dissolved in HFIP or transcutol in the presence of β-hydroxypropyl cyclodextrin, then aqueous medium; all levels of cyclodextrin employed. The format is physicochemical. The source says:
In order to avoid problems with aggregation, which, it was feared, may affect the long-term stability of the product, a number of methodologies were employed to disperse the peptide prior to introduction into aqueous medium. Dissolution in HFIP, followed by drying down and addition of water worked reasonably well, as did dissolving in transcutol at high concentration, then adding to water. […] Detailed methodology is given in the Experimental section.

For series [10], the system named is lymphocytes. As to the kind of experiment: TNF secretion by lymphocytes. The format is cell-based. The following applies: evidence to be presented separately.

Entries after “also recorded” stand apart in the source; their conditions may differ.

Take “cyclo(DF-S-LC10-R-DF-S-LC10-R) [Lex 2.6]”: the “Change in level of secretion of TNF into the supernatant” value (“Change in level” for short) is “inhibits secretion of TNF” in series [1] and “most efficacious structure tested; also recorded: inhibits secretion of TNF” in series [2]. For the same substance, the “Dependence of TNF down-regulating activity on cyclodextrin:peptide ratio” value in series [2] (LPS-stimulated J774A.1 cells overnight, formulated with beta hydroxypropyl cyclodextrin at different weight ratios, down to 1.25 (molar ratio 1.3)) is “independent of the ratio of peptide to cyclodextrin”. In addition, the “Effect on TNF secretion of cells in the cognate assay” value in series [3] (10 µg/mL, formulated with cyclodextrin in the presence of transcutol (panel a), 18 h co-culture, ELISA) was “inhibitory activity is seen clearly”. The “Inhibition of TNF secretion elicited by modified T-cell phenotype” value in [3] (summary statement) is “inhibits secretion of TNF”. The “Effect on IL-6 secretion” value was “Clear dose-related inhibition of IL-6 secretion” in series [4] and “reductions in IL-6 secretion” in [5]. In series [6], the “Cell metabolic activity (MTT test)” value is on record as “no reduction in cell metabolic activity”. For the same substance, the “Effect on levels of IL-1” value in [7] is “No effect”. For the same substance, in [8], the “Effect on levels of IL-10” value was “No effect”. Also, the “Light scattering of the preparation (homogeneity)” value in series [9] is reported as “significant reduction in light scattering”. In addition, the “Effect on TNF secretion by lymphocytes” value in series [10] is “no effect on secretion by lymphocytes”.

As for “cyclo(DF-R-LC10-S-DF-R-LC10-S) [Lex 2.5]”, the “Change in level” value in [2] is “strongly dose-related stimulatory activity”.

As for “cyclo(-DF-S-Nle-R-DF-S-Nle-R-) [Lex 2.4]”, the “Change in level” value in series [1] is listed as “insufficient”.

For “cyclo(-DF-R-Nle-S-DF-R-Nle-S-) [Lex 2.3]”, the “Change in level” value in [1] is “insufficient”.

As to cyclo(-DF-S-Σ-R-DF-S-Σ-R-) [Lex 2.2], the “Change in level” value in [1] was “efficacy in terms of down-regulating the secretion of TNF; also recorded: more efficacious”.

In the case of cyclo(-DF-R-Σ-S-DF-R-Σ-S-) [Lex 2.1], in series [1], the “Change in level” value was “efficacy in terms of down-regulating the secretion of TNF”.
